Biological target: T1, protein-protein interaction between SOS1 and KRAS-G12D (Homo sapiens, UniProt Q07889)
T1 construct: The purified GST-SOS1 catalytic domain (residues 564-1049) was first diluted in assay buffer; made in house; host or cells: E. coli BL21 (DE3) for SOS1; E. coli BL21 carrying a BirA plasmid for KRAS-G12D
T1 sequence (Q07889 564-1049): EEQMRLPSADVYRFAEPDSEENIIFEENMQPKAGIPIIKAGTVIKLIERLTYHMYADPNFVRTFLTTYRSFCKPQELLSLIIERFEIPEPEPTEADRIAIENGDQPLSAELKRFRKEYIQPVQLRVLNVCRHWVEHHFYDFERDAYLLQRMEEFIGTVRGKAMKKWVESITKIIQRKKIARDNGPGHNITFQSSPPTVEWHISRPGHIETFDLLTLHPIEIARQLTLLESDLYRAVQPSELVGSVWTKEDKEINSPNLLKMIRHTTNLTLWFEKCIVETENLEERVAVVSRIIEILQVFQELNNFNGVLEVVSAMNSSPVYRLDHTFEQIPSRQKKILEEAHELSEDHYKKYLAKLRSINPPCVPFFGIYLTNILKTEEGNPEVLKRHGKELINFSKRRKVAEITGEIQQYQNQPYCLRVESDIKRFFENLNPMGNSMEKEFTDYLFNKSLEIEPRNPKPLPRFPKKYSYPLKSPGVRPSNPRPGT
Test: HTRF Based Protein-Protein Interaction Assay
Type: binding
Details: HTRF; GST-SOS1 2.5 nM, KRAS-G12D 100 nM, GDP 10 uM; read-out: IC50 value, inhibition of SOS1/KRAS-G12D protein-protein interaction
From the text: A KRAS-G12D and SOS1 binding/interaction assay was designed to measure the interaction between KRAS-G12D and SOS1 proteins. Utilizing HTRF (Homogeneous Time-Resolved Fluorescence) technology, the assay enabled simple and rapid characterization of compound and protein interaction in a high throughput format. This assay was used to examine potency of the compounds in inhibiting the protein-protein interaction between SOS1 and KRAS-G12D. […] Low IC50 values are indicative of high potency of the SOS1 inhibitor compound to disrupt SOS1 and Kras-G12D interaction.
Protein Expression and Purification. The corresponding gene sequence to human SOS1 (residues 564-1049, UniProt ID: Q07889; SEQ ID NO: 2) was synthesized and fused in frame with GST expression vector. After the desired sequence was confirmed, plasmid containing the sequence was transformed into the E. coli strain BL21 (DE3). Bacteria were growing at 37° C. in LB media containing 50 μg/ml Kanamycin to give OD600 of 0.6-0.8. Then 0.2 mM IPTG was added to induce protein expression for 16 hours at 17° C. Bacteria were harvested by centrifugation and stored at −80° C. Bacteria pellets were resuspended in lysis buffer (25 mM Tris-HCl, 500 mM NaCl, 2 mM DTT, 2.3% sucrose, 0.3% dextran-10, 1 mM PMSF, pH 7.5) and lysed using high-pressure homogenizer. The lysate was cleared by centrifugation for 30 minutes (12000 rpm at 4° C.). The supernatant containing GST-SOS1 fragment was purified sequentially through Glutathione column and gel filtration (Hiload 16/600 Superdex […] column, Cytiva). The purified GST-SOS1 fragment was confirmed by SDS-PAGE and stored in 25 mM Tris-HCl, 100 mM NaCl, 1 mM DTT, 2.3% sucrose, 0.3% dextran-10, pH 7.5 at −80° C.
Kras-G12D Protein Purification. The sequence corresponding to human KRAS-G12D (residues 1-169, UniProt P01116-2; SEQ ID NO: 1) was synthesized and fused in frame with His-AVI-TEV vector. The plasmid was transformed into the E. coli strain BL21 (containing a plasmid that can generate BirA enzyme). Bacteria were growing at 37° C. in TB media containing 100 μg/ml ampicillin and 50 μg/ml Kanamycin to give OD600 of 0.6-0.8. The 0.5 mM IPTG and 50 mg/l biotin were added to induce protein expression for 16 hours at 25° C. Bacteria were harvested by centrifugation and stored at −80° C. Bacteria pellets were re-suspended in lysis buffer (20 mM Tris-HCl, 500 mM NaCl, 5 mM MgCl2, 2 mM […], 5% glycerol, pH 8.0) and lysed using high-pressure homogenizer. The lysate was cleared by centrifugation for 30 minutes (12000 rpm at 4° C.). The supernatant containing HIS-AVI-TEV-KRAS-G12D fragment was purified sequentially through Ni-NTA column (SMART), Streptactin column (SMART), and gel filtration (Hiload 16/600 Superdex 75 pg, GE). The purified HIS-AVI-TEV-KRAS-G12D fragment was confirmed by SDS-PAGE and stored in 50 mM HEPES-NaOH, 100 mM NaCl, 1 mM DTT, 5 mM MgCl2, pH 7.5 at −80° C.
Protein-Protein Interaction Assay. An assay buffer containing 50 mM HEPES, pH 7.5, 50 mM NaCl, 0.01% Brij-35, 1 mM TCEP, 0.1% BSA was prepared, and concentration series of test compounds were generated spanning from 0.5 nM to 10 μM over 10 3-fold serial dilutions in a 384-well assay plate at a volume of 20 pL. The purified GST-SOS1 catalytic domain (residues 564-1049) was first diluted in assay buffer and 5 μl of SOS1 (final concentration 2.5 nM in assay mixture) was directly dispensed into compound plates. After a spin down at 1000 RPM for 30 seconds, the SOS1/compound mixture was incubated at 25° C. for 15 minutes to allow the reaction between SOS1 and the compound. A KRAS-G12D mixture was prepared by incubation of avi-tagged Kras-G12D (residue 1-169) and GDP in assay buffer containing 10 mM MgCl2 at room temperature for 10 minutes. A KRAS-G12D and GDP mixture (5 μL) was added to the assay plate (final KRAS-G12D was 100 nM and GDP was 10 uM). The plate was centrifuged at 1000 rpm for 30 sec and incubated at 25° C. for 60 minutes. […]

Row | Compound | IC50 [nM]
1 | C#C[C@@H](Nc1nc(C)nc2cc(=O)n(C3(CF)CC3)cc12)c1cccc(C(F)F)c1F [Compound 32, (R)-4-((1-(3-(difluoromethyl)-2-fluorophenyl)prop-2-yn-1-yl)amino)-6-(1-(fluoromethyl)cyclopropyl)-2-methylpyrido[4,3-d]pyrimidin-7(6H)-one] | < 100
2 | C#C[C@@H](Nc1nc(C)nc2cc(=O)n(C3(C)CC3)cc12)c1cccc(C(F)F)c1F [Compound 20, (R)-4-((1-(3-(difluoromethyl)-2-fluorophenyl)prop-2-yn-1-yl)amino)-2-methyl-6-(1-methylcyclopropyl)pyrido[4,3-d]pyrimidin-7(6H)-one] | < 100
3 | C#C[C@@H](Nc1nc(C)nc2cc(=O)n(C3CC(F)(F)C3)cc12)c1cccc(C(F)(F)F)c1C [Compound 11, (R)-6-(3,3-difluorocyclobutyl)-2-methyl-4-((1-(2-methyl-3-(trifluoromethyl)phenyl)prop-2-yn-1-yl)amino)pyrido[4,3-d]pyrimidin-7(6H)-one] | < 100
4 | C#C[C@@H](Nc1nc(C)nc2cc(=O)n(C3CCC3)cc12)c1cccc(C(F)(F)F)c1C [Compound 3, (R)-6-cyclobutyl-2-methyl-4-((1-(2-methyl-3-(trifluoromethyl)phenyl)prop-2-yn-1-yl)amino)pyrido[4,3-d]pyrimidin-7(6H)-one] | < 100
5 | C#C[C@@H](Nc1nc(C)nc2cc(=O)n(C3(C)CCOC3)cc12)c1cccc(C(F)F)c1C (mixture of isomers) [Compound 13, 4-(((R)-1-(3-(difluoromethyl)-2-methylphenyl)prop-2-yn-1-yl)amino)-2-methyl-6-(3-methyltetrahydrofuran-3-yl)pyrido[4,3-d]pyrimidin-7(6H)-one] | < 100
6 | C#C[C@@H](Nc1ncnc2c1cc(C1(F)CCN(C(C)=O)CC1)c(=O)n2C)c1cccc(C(F)F)c1F [Compound 47, 6-(1-acetyl-4-fluoropiperidin-4-yl)-4-{[(1R)-1-[3-(difluoromethyl)-2-fluorophenyl]prop-2-yn-1-yl]amino}-8-methyl-7H,8H-pyrido[2,3-d]pyrimidin-7-one] | < 100
7 | C#C[C@@H](Nc1nc(C)nc2cc(=O)n(C3(C)CC3)cc12)c1cccc2c1CCC2(F)F [Compound 23, (R)-4-((1-(1,1-difluoro-2,3-dihydro-1H-inden-4-yl)prop-2-yn-1-yl)amino)-2-methyl-6-(1-methylcyclopropyl)pyrido[4,3-d]pyrimidin-7(6H)-one] | < 100
8 | C#C[C@@H](Nc1nc(C)nc2cc(=O)n(C3(C4CCOC4)CC3)cc12)c1cccc(C(F)(F)F)c1C (stereo partly drawn) [Compound 34, 2-methyl-4-(((R)-1-(2-methyl-3-(trifluoromethyl)phenyl)prop-2-yn-1-yl)amino)-6-(1-(tetrahydrofuran-3-yl)cyclopropyl)pyrido[4,3-d]pyrimidin-7(6H)-one] | < 100
9 | C#C[C@@H](Nc1nc(C)nc2cc(=O)n([C@H]3C[C@H](F)C3)cc12)c1cccc(C(F)(F)F)c1C [Compound 10, 6-((1S,3S)-3-fluorocyclobutyl)-2-methyl-4-(((R)-1-(2-methyl-3-(trifluoromethyl)phenyl)prop-2-yn-1-yl)amino)pyrido[4,3-d]pyrimidin-7(6H)-one] | < 100
10 | C#C[C@@H](Nc1ncnc2cc(=O)n(C3(C(F)F)CC3)cc12)c1cccc(C(F)F)c1C [Compound 40, (R)-4-((1-(3-(difluoromethyl)-2-methylphenyl)prop-2-yn-1-yl)amino)-6-(1-(difluoromethyl)cyclopropyl)pyrido[4,3-d]pyrimidin-7(6H)-one] | < 100

Other lines, results leading:

Row | IC50 [nM] | Compound
11 | < 100 | C#C[C@@H](Nc1nc(C)nc2cc(=O)n(C3(C)CC3)cc12)c1cccc2c1OCC2(F)F [Compound 21, (R)-4-((1-(3,3-difluoro-2,3-dihydrobenzofuran-7-yl)prop-2-yn-1-yl)amino)-2-methyl-6-(1-methylcyclopropyl)pyrido[4,3-d]pyrimidin-7(6H)-one]
12 | < 100 | C#C[C@@H](Nc1nc(C)nc2c(F)c(=O)n(C3(C(F)F)CC3)cc12)c1cccc(C(F)F)c1F [Compound 27, (R)-4-((1-(3-(difluoromethyl)-2-fluorophenyl)prop-2-yn-1-yl)amino)-6-(1-(difluoromethyl)cyclopropyl)-8-fluoro-2-methylpyrido[4,3-d]pyrimidin-7(6H)-one]
13 | < 100 | C#C[C@@H](Nc1nc(C)nc2cc(=O)n(C3(C#N)CC3)cc12)c1cccc(C(F)(F)F)c1C [Compound 6, (R)-1-(2-methyl-4-((1-(2-methyl-3-(trifluoromethyl)phenyl)prop-2-yn-1-yl)amino)-7-oxopyrido[4,3-d]pyrimidin-6(7H)-yl)cyclopropane-1-carbonitrile]
14 | < 100 | C#C[C@@H](Nc1nc(C)nc2cc(=O)n(C3CC(F)(F)C3)cc12)c1cccc(C(F)F)c1F [Compound 29, (R)-6-(3,3-difluorocyclobutyl)-4-((1-(3-(difluoromethyl)-2-fluorophenyl)prop-2-yn-1-yl)amino)-2-methylpyrido[4,3-d]pyrimidin-7(6H)-one]
15 | < 100 | C#C[C@@H](Nc1nc(C)nc2cc(=O)n(C(C)C(F)(F)F)cc12)c1cccc(C(F)(F)F)c1C (mixture of isomers) [Compound 8, 2-methyl-4-(((R)-1-(2-methyl-3-(trifluoromethyl)phenyl)prop-2-yn-1-yl)amino)-6-(1,1,1-trifluoropropan-2-yl)pyrido[4,3-d]pyrimidin-7(6H)-one]
16 | < 100 | C#C[C@@H](Nc1nc(C)nc2cc(=O)n(C3(C)CCOC3)cc12)c1cccc(C(F)(F)F)c1C (stereo partly drawn) [Compound 7, 2-methyl-4-(((R)-1-(2-methyl-3-(trifluoromethyl)phenyl)prop-2-yn-1-yl)amino)-6-(3-methyltetrahydrofuran-3-yl)pyrido[4,3-d]pyrimidin-7(6H)-one]
17 | < 100 | C#C[C@@H](Nc1nc(C)nc2cc(=O)n(C34CC(C3)C4)cc12)c1cccc2c1CCC2(F)F [Compound 2, (R)-6-(bicyclo[1,1,1]pentan-1-yl)-4-((1-(1,1-difluoro-2,3-dihydro-1H-inden-4-yl)prop-2-yn-1-yl)amino)-2-methylpyrido[4,3-d]pyrimidin-7(6H)-one]
